According to publication PMC6325233, “A Novel Actin Binding Drug with In Vivo Efficacy” (Antimicrobial Agents and Chemotherapy, 2018):
pKd: −log10 of the molar value.

Experiments:
Mucor racemosus 27784 = assay: MIC susceptibility testing; format: cell-based; set-up: key to MIC, 50% inhibition: -: indicates absence of isolates with 50% inhibition endpoint; conditions: CLSI M38-A2
Description: (§1) Occidiofungin was purified from a liquid culture of Burkholderia contaminans MS14 as previously described ([21]). MIC susceptibility testing was performed according to the CLSI M27-A3 and M38-A2 standards for the susceptibility testing of yeasts and filamentous fungi, respectively. S. cerevisiae deletion mutants were obtained from the commercially available BY4741 deletion library (Thermo Scientific).

Candida krusei 9541 = assay: MIC susceptibility testing; format: cell-based; set-up: key to MIC, 50% inhibition: -: indicates absence of isolates with 50% inhibition endpoint; conditions: CLSI M27-A3
Description: as §1

[1] = tested on: Aspergillus fumigatus 28434; assay: MIC susceptibility testing; format: cell-based; set-up: key to MIC, 50% inhibition: -: indicates absence of isolates with 50% inhibition endpoint; conditions: CLSI M38-A2
Description: as §1

Candida albicans 28102 = assay: MIC susceptibility testing; format: cell-based; set-up: key to MIC, 50% inhibition: -: indicates absence of isolates with 50% inhibition endpoint; conditions: CLSI M27-A3
Description: as §1

[2] = biological target: T1, rabbit skeletal muscle F-actin (Oryctolagus cuniculus, UniProt P68135); assay: Cosedimentation assay; format: binding; conditions: F-actin 200 nM, Langmuir fit
T1 construct: Purified rabbit skeletal muscle filamentous actin (catalog number AKF99); purchased Cytoskeleton, Inc. AKF99; host or cells: rabbit skeletal muscle (tissue-purified)
Description: Purified rabbit skeletal muscle filamentous actin (catalog number AKF99) and G-actin (catalog number AKL95) were purchased from Cytoskeleton, Inc. Actin was reconstituted in Milli-Q water to achieve a stock concentration of 0.4 mg/ml in a buffer that consisted of 5 mM Tris-HCl (pH 8.0), 0.2 mM CaCl2, 0.2 mM ATP, 2 mM MgCl2, and 5% (wt/vol) sucrose as directed by the supplier. This solution was stored at −80°C in 50-μl aliquots until use. Immediately before use, each aliquot was thawed by placing it in a 37°C water bath for 5 min and then at room temperature. For all studies, 24 μg of F- or G-actin was used with 8 μg alkyne-OF. F-actin filaments were reacted with native occidiofungin for 15 min at room temperature at molar ratios of 1:10 (24 μg actin to 8 μg native occidiofungin) and 1:5 (24 μg actin to 4 μg native occidiofungin). As per the manufacturer’s instructions, Acti-stain 670 phalloidin (Cytoskeleton, Inc.) was used as a control in an in vitro actin filament binding study. Actin filaments treated with DMSO (solvent blank negative control) were stained and observed for comparison. […]
The reaction buffer for F-actin (200 nM) and occidiofungin in the cosedimentation study consisted of 5 mM Tris-HCl (pH 8.0), 0.2 mM ATP, and 2 mM MgCl2. […] A TSQ Quantum access triple quadrupole mass spectrometer was used to quantify the amount of occidiofungin within each sample. […]

S. cerevisiae Δcap2 = assay: MIC against deletion mutant; format: cell-based; conditions: Barbed-end actin capping protein
Description: as §1

S. cerevisiae Δscp1 = assay: MIC against deletion mutant; format: cell-based; conditions: Actin cross linker
Description: as §1

S. cerevisiae Δmyo5 = assay: MIC against deletion mutant; format: cell-based; conditions: Actin based motor activity, Type I motor
Description: as §1

S. cerevisiae Δtpm2 = assay: MIC against deletion mutant; format: cell-based; conditions: Actin filament binding, Tropomyosin
Description: as §1

S. cerevisiae Δrgl1 = assay: MIC against deletion mutant; format: cell-based; conditions: Tus1p cofactor
Description: as §1

S. cerevisiae Δrom2 = assay: MIC against deletion mutant; format: cell-based; conditions: Rho1/2-GEF
Description: as §1

S. cerevisiae Δbni1 = assay: MIC against deletion mutant; format: cell-based; conditions: Actin nucleation, Formin
Description: as §1

S. cerevisiae Δabp1 = assay: MIC against deletion mutant; format: cell-based; conditions: ARP2/3 activator
Description: as §1

S. cerevisiae Δbem2 = assay: MIC against deletion mutant; format: cell-based; conditions: Rho-GAP for the CWI pathway
Description: as §1

S. cerevisiae Δtpm1 = assay: MIC against deletion mutant; format: cell-based
Description: as §1

S. cerevisiae Δrdi1 = assay: MIC against deletion mutant; format: cell-based; conditions: Rho GDP-inhibitor
Description: as §1

S. cerevisiae Δarc18 = assay: MIC against deletion mutant; format: cell-based; conditions: ARP2/3 subunit
Description: as §1

S. cerevisiae Δmyo4 = assay: MIC against deletion mutant; format: cell-based; conditions: Actin based motor activity, Type V motor
Description: as §1

S. cerevisiae Δsac6 = assay: MIC against deletion mutant; format: cell-based; conditions: Actin bundling, Fimbrin
Description: as §1

occidiofungin
2 µg/mL: MIC, 50% inhibition (Mucor racemosus 27784; 24 hours) | MIC, 50% inhibition (Candida krusei 9541; 24 hours) | MIC, 100% inhibition (Candida albicans 28102; 24 hours) | MIC, 100% inhibition (Candida albicans 28102; 48 hours)
4 -fold: resistance to occidiofungin of Δtpm1 mutant (S. cerevisiae Δtpm1; vs parent, MIC)
-: MIC, 50% inhibition (Mucor racemosus 27784; 48 hours) | MIC, 50% inhibition (Candida krusei 9541; 48 hours) | MIC, 50% inhibition ([1]; 24 hours) | MIC, 50% inhibition ([1]; 48 hours) | MIC, 50% inhibition (Candida albicans 28102; 24 hours) | MIC, 50% inhibition (Candida albicans 28102; 48 hours)
0.25 µg/mL: MIC (S. cerevisiae Δcap2) | MIC (S. cerevisiae Δscp1) | MIC (S. cerevisiae Δmyo5) | MIC (S. cerevisiae Δtpm2) | MIC (S. cerevisiae Δrgl1) | MIC (S. cerevisiae Δrom2) | MIC (S. cerevisiae Δbni1) | MIC (S. cerevisiae Δabp1) | MIC (S. cerevisiae Δbem2) | MIC (S. cerevisiae Δrdi1) | MIC (S. cerevisiae Δarc18) | MIC (S. cerevisiae Δmyo4) | MIC (S. cerevisiae Δsac6)
1.0 µg/mL: MIC (S. cerevisiae Δtpm1; Actin filament binding, Tropomyosin)
24: saturation of binding, stoichiometry ligand : actin monomer [2]
6.00: pKd ([2]; occidiofungin 25 to 25,600 nM, pH 8.0, room temperature, 30 min, LC-MS quantification, read-out: estimated macroscopic dissociation constant (Kd))
4 µg/mL: MIC, 100% inhibition (Mucor racemosus 27784; 24 hours) | MIC, 100% inhibition (Mucor racemosus 27784; 48 hours) | MIC, 100% inhibition (Candida krusei 9541; 24 hours) | MIC, 100% inhibition (Candida krusei 9541; 48 hours) | MIC, 100% inhibition ([1]; 24 hours) | MIC, 100% inhibition ([1]; 48 hours)
